Data from patent US20240285808A1, “MOLECULAR PROBES FOR IN VIVO DETECTION OF ALDEHYDES” (The General Hospital Corporation, priority 2021, published 2024).

How the values were obtained:
[1] = system: lungs of bleomycin-injured mice; experiment: PET probe lung uptake in naïve and bleomycin-injured mice (gamma counter); format: in vivo, mouse; conditions: 90 min post injection; for Lung uptake, Bleo: 14 days post bleomycin injury; for Lung uptake, Naïve: naïve mice
Experimental: C57Bl/6 adult male mice at 8 weeks of age (Jackson Laboratories, Barr Harbor, ME) received a single intratracheal dose of bleomycin, 1 units/kg body weight (50 μL total volume) (Fresenius Kabi, Lake Zurich, Il) as previously described in Desogere, P., et al. Optimization of a Collagen-Targeted PET Probe for Molecular Imaging of Pulmonary Fibrosis. J Nuc Med 58, 1991-1996 (2017).
Imaging and Biodistribution Study for Selectivity of Allysine-Reactive Probes In Vivo:
(§1) Bleomycin-injured mice at 14 days after injury were sedated and then injected with Compound 19, Compound 20, Gd-CHyd (Akam, E. A., et al. Improving the reactivity of hydrazine-bearing MRI probes for in vivo imaging of lung fibrogenesis. Chemical Science 11, 224-231 (2020)) formulated to contain an equal concentration of Eu-DOTA as a non-binding control probe. Animals were then euthanized at 30 minutes after injection. The lungs were harvested separately, along with blood, tail and liver. Each sample was analyzed by ICP-MS for gadolinium and europium content, and the lungs were also assessed for hydroxyproline content. Selectivity is reported as the ratio of Gd to Eu. All animals were dosed via tail vein injection at 100 nmol/g body weight from 30 mM solutions of gadolinium probes with 30 mM Eu-DOTA as determined by ICP-MS. For PET probes, Compounds 1-8 were radiolabeled with either ^68Ga or ^64Cu and the dose was delivered as a bolus injection through tail vein. Animals were euthanized 90 min post injection and their organs and tissues were harvested and counted using a gamma counter. For an imaging study with a PET tracer, animals were injected inside PET/MRI scanner and scanned dynamically for 60 min under anesthesia. The animals were euthanized 90 min post injection and their organs and tissues were counted using a gamma counter. The biodistribution of Mn-15, Mn-16, Mn-17, and Mn-18 was determined by injecting a mixture of ^52/nat complex into naïve mice and activity in each tissue were measured 24 hours post injection.

[2] = system: lungs of bleomycin-injured mice; experiment: ^68Ga-7 PET/MRI imaging and organ counts in bleomycin-injured and naïve mice; format: in vivo, mouse; conditions: for probe uptake in lungs, PET scans: 55 min p.i.; for probe uptake in lungs, organ counts: 90 min p.i.
Experimental: as §1
Probe ^68Ga-7 was synthesized in 5 steps. Male C57BL/6 mice were intratracheally instilled with bleomycin (1.2 U/kg) and imaged after 14 days when allysine levels peak in the lung. Bleomycin injured mice or age-matched controls were placed in a micro-PET/MRI scanner and administered ^68Ga-7 as a bolus via the lateral tail vein and dynamically imaged for 60 minute. At 90 min p.i. animals were euthanized, and their organs were harvested for gamma counting. After gamma counting, lungs were flash-frozen and later analyzed for hydroxyproline (total collagen, fibrosis measure) and allysine content.

[3] = Relaxivity measurements in PBS; format: physicochemical; conditions: 1.4 T, 37° C.
Experimental: (§2) BSA-ALD (10 mg/mL) or BSA (10 mg/mL) were treated for 24 hours at 37° C. with the corresponding Gd or Mn complex at a range of concentrations (0.01-0.2 mM), with a total volume of 300 μL maintained for all samples. After 24 hours, an aliquot of the solution (50 μL) was used for longitudinal (T1) relaxation measurements, recorded using a Bruker mq60 Minispec at 1.41 T and 37° C. Longitudinal (T1) relaxation times were measured via an inversion recovery experiment using 10 inversions of duration ranging between 0.05×T1 and 10×T1. Solutions (concentration range: 0.1 mM-1.0 mM) in PBS were run in parallel. To measure the relaxivity of BSA-bound species, sodium cyanoborohydride (10 mg) was added to the solution to irreversibly bind the probe to the protein. After a further 2h incubation at 37° C., protein-bound and protein-free solutions were separated by ultrafiltration. Then 200 μL PBS was added to the residue to dissolve the protein. Longitudinal (T1) relaxation times for the bounded species were measured using a Bruker mq60 Minispec at 1.41 T and 37° C. After the measurement, concentration of corresponding metal ion (Gd/Mn) in the residue and filter were both determined using an Agilent 8800 ICP-MS system. Relaxivity (r1) was determined from the slope of a plot of 1/T1 vs metal concentration for 5 concentrations.

[4] = molecular target: T1, BSA-ALD (oxidized bovine serum albumin containing allysine aldehyde groups) (Bos taurus, UniProt P02769); experiment: Relaxivity measurements with BSA-Ald; format: binding; conditions: 1.4 T, 37° C., BSA-Ald 10 mg/mL
T1 construct: made in house; host or cells: no expression host: BSA oxidised chemically with sodium ascorbate, ferric chloride and H2O2, then desalted on PD-10
Experimental: Preparation of Allysine Containing Bovine Serum Albumin, BSA-ALD:
To a solution of bovine serum albumin (BSA) (100 mg) dissolved in phosphate buffered saline (4 mL, pH 7.4, 0.25 mM), sodium ascorbate (20 mg), ferric chloride (120 μL, 10 mM) and 20 μL H2O2 (30% w) were added. The reaction was stirred at 37° C. for 24 hours, and sodium ascorbate (20 mg) was added repeatedly every 8 hours. After the reaction, protein was purified using PD-10 Sephadex G25 desalting columns (GE Healthcare), eluted with PBS. Protein concentration was assessed using the ‘BCA Protein Assay Kit’ (Thermo Scientific). Protein carbonyl concentration was determined by ‘Protein Carbonyl Content Assay Kit’ (Sigmal-Aldrich).
Alternatively, preparation of BSA^Ald and binding of Gd^3+ probe to protein was carried out according to modified procedures. To a solution of bovine serum albumin (BSA) (100 mg) dissolved in phosphate buffered saline (4 mL, pH 7.4, 0.25 mM) was added sodium ascorbate (20 mg), ferric chloride (120 μL, 10 mM) and 20 μL H2O2 (30% w). The reaction was stirred at 37° C. for 24 h, and sodium ascorbate (20 mg) was added repeatedly every 8 h. After 24 h, the protein was purified using PD-10 Sephadex G25 desalting columns (GE Healthcare), eluted with PBS. Protein concentration was assessed using the ‘Micro BCA Protein Assay Kit’ (Thermo Scientific, 23235). Protein carbonyl concentration was determined by ‘Protein Carbonyl Content Assay Kit’ (Sigma-Aldrich, MAK094-1KT). […] The protein solutions were kept at a concentration of 20 mg/mL for further use.
as §2

[5] = molecular target: bovine serum albumin (BSA) (Bos taurus, UniProt P02769); experiment: Relaxivity measurements with BSA; format: binding; conditions: 1.4 T, 37° C., BSA 10 mg/mL
Experimental: as §2

[6] = system: liver of CCl4 injured mice; format: in vivo, mouse; conditions: CCl4 injured mice
Experimental: CCl4 Liver Fibrosis Model:
Male C57BL/6 mice (Charles River Laboratories, Wilmington, MA) were treated with carbon tetrachloride for 12 weeks (0.1 ml of 20% CCl4 in olive oil the first week, 30% the second week, and 40% from weeks 3-12) by oral gavage, 2-3 times per week. Control mice were fed vehicle (olive oil) only.
A total of 53 C57BL/6 mice were included to study CCl4 induced hepatic fibrosis: • A. CCl4 for 12 weeks (n=20). Each mouse was imaged with probe 1 and then imaged again 24 hours later with probe 2. Probe 1 and Probe 2 were randomly chosen from GdDOTA, GdCHyd, Mn-12, Gd-9 and Gd-10. • B. Vehicle treated control (n=20). Each mouse was imaged with probe 1 and then imaged again 24 hours later with probe 2. Probe 1 and Probe 2 were randomly chosen from GdDOTA, Mn-12, GdCHyd, Gd-9, Gd-10. • C. CCl4 for 12 weeks (n=3, another 3 pair-wise comparison have been done in group A). Each mouse was imaged with probe 1 and then imaged again 24 hours later with probe 2. […] Each mouse was imaged with probe 1 and then imaged again 24 hours later with probe 2. Probe 1 and Probe 2 were randomly choosing from Gd-9 and Gd-10. • E. CCl4 for 12 weeks (n=3). Each mouse was imaged with Gd-9. After 24 hours, the same mouse was first injected with 1000 μmol/kg of Yb-9 and then injected with 100 μmol/kg of Gd-9 15 min after the Yb-9 injection.
Animals were anesthetized with isoflurane (1-2%) and placed in a specially designed cradle with body temperature maintained at 37° C. The inhaled isoflurane level was adjusted to maintain a respiration rate of 60±5 breaths per minute. The tail vein was cannulated for intravenous (i.v.) delivery of the contrast agent while the animal was positioned in the scanner. Imaging was performed at 4.7 T using a small bore animal scanner with a custom-built volume coil. Mice were imaged with a dose of 100 μmol/kg from 30 mM stock solution of Gd or Mn complex.
For mice liver imaging, a series of baseline images (3D T1 weighted fast low angle shot magnetic resonance imaging (FLASH)) were first acquired (repetition time/echo time=15/2 ms; flip angle, 30°; field of view, 48×30 mm^2; matrix size, […]; slice thickness, 0.25 mm; acquisition time, 3 minutes 20 seconds), then a bolus of Gd or Mn complex was administered i.v. and imaging performed for a period of 45 min p.i. with the repetition acquisition of 3D T1 weighted FLASH sequences. Following the imaging session, animals were sacrificed (75 min p.i.) and liver tissue was subjected to histopathologic analysis.
For liver imaging analysis, a region of interest (ROI) was manually traced encompassing the liver parenchyma while avoiding major blood vessels. A second ROI was placed on the dorsal muscle visible in the same image slice to quantify the signal intensity in the muscle for comparison. Seven ROIs were placed in the field of view without any tissue (air) to measure the variation in background signal. More than 20 axial slices per mouse across the entire liver were analyzed in this fashion. […] Contrast to noise ratio (CNR) was calculated by measuring the difference in signal intensity (SI) between liver and muscle and normalizing to the standard deviation of the signal in the air, eq 21. ΔCNR was calculated by subtracting CNR measured prior to probe injection (CNRPre) from CNR measured after injection (CNRPost), eq 22. […]

bovine serum albumin (BSA), sequence (P02769 25-607): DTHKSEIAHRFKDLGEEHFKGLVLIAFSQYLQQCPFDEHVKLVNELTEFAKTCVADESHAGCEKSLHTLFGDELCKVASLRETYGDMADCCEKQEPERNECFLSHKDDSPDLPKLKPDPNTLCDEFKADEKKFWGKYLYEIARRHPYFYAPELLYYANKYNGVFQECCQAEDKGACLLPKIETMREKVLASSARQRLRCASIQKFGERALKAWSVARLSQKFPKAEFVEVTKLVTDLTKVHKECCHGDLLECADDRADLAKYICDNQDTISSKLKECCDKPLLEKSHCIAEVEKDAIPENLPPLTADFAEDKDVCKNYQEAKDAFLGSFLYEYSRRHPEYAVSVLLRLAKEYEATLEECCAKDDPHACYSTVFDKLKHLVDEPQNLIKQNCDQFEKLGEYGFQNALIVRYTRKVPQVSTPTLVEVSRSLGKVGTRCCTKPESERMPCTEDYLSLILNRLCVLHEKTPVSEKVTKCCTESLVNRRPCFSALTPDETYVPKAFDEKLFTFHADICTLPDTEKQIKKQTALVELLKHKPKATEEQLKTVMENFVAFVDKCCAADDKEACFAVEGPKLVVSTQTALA
T1 sequence (P02769 25-607): as above

## CNCCC1=NN(CC(=O)NCCOCCOCCOCCNC(=O)CN2CCN(CC(=O)[O-])CCN(CC(=O)[O-])CC2)C(=O)C1.[68Ga+3] [^68Ga-6]
[1]
  Lung uptake, Bleo: 1.32 % ID/g
  Lung uptake, Naïve: 0.84 % ID/g

## NC(Cn1cccc1)C(=O)NCCOCCOCCOCCNC(=O)CN1CCN(CC(=O)[O-])CCN(CC(=O)[O-])CC1.[68Ga+3] (stereo not shown) [^68Ga-2]
[1]
  Lung uptake, Bleo: 0.96 % ID/g
  Lung uptake, Naïve: 0.45 % ID/g

## O=C([O-])CN1CCN(CC(=O)[O-])CCN(CC(=O)NCCOCCOCCOCCNC(=O)CN2C(=O)CSC2=S)CC1.[68Ga+3] [^68Ga-4]
[1]
  Lung uptake, Bleo: 0.61 % ID/g
  Lung uptake, Naïve: 0.24 % ID/g

## NNC(=O)C(N)CCC(=O)NCCOCCOCCOCCNC(=O)CN1CCN(CC(=O)[O-])CCN(CC(=O)[O-])CC1.[68Ga+3] (stereo not shown) [^68Ga-5]
[1]
  Lung uptake, Bleo: 0.88 % ID/g
  Lung uptake, Naïve: 0.30 % ID/g

## NNC(CCC(=O)NCCOCCOCCOCCNC(=O)CN1CCN(CC(=O)[O-])CCN(CC(=O)[O-])CC1)C(=O)O.[68Ga+3] (stereo not shown) [^68Ga-7]
[2]; Bleomycin injured mice (n = 5)
  probe uptake in lungs, PET scans: 0.51 % ID/cc
  probe uptake in lungs, organ counts: 2.65 % ID/g
[2]; Naïve mice (n = 4)
  probe uptake in lungs, PET scans: 0.23 % ID/cc
  probe uptake in lungs, organ counts: 0.886 % ID/g
[2]; mouse, in vivo
  uptake in bleomycin injured lung compared to ^68Ga-NODAGA-indole: twice the uptake
[2]; naïve animal
  blood clearance and elimination: rapid blood clearance

## Cc1cc(O)n(CC(=O)NCCOCCOCCOCCNC(=O)CN2CCN(CC(=O)[O-])CCN(CC(=O)[O-])CC2)n1.[68Ga+3] [^68Ga-3]
[1]
  Lung uptake, Bleo: 2.13 % ID/g
  Lung uptake, Naïve: 0.82 % ID/g

## GdDOTA [reference compound]
[3]
  r1, PBS: 4.0 mM⁻¹ s⁻¹
[4]
  r1, +BSA-Ald: 4.0 mM⁻¹ s⁻¹
[5]
  r1, +BSA: 4.0 mM⁻¹ s⁻¹
[6]; 45 min p.i.
  liver enhancement: no significant liver enhancement
[6]; 45 min post injection, 100 μmol/kg i.v., group mean
  ΔCNR (liver to muscle): 0.1 ± 0.2

## NN1CCN(C(=O)CCOCCOCCOCCOCCNC(=O)CN2CCN(CC(=O)[O-])CCN(CC(=O)[O-])CC2)CC1.[68Ga+3] [^68Ga-1]
[1]
  Lung uptake, Bleo: 0.99 % ID/g
  Lung uptake, Naïve: 0.27 % ID/g

## NC(Cn1cccc1)C(=O)NCCOCCOCCOCCNC(=O)CN1CCN(CC(=O)[O-])CCN(CC(=O)[O-])CC1.[64Cu+2] (stereo not shown) [^64Cu-2]
[1]
  Lung uptake, Bleo: 0.42 % ID/g
  Lung uptake, Naïve: 0.26 % ID/g

## NN1CCN(C(=O)CCC(C(=O)[O-])N2CCN(CC(=O)[O-])CCN(CC(=O)[O-])CCN(C(CCC(=O)N3CCN(N)CC3)C(=O)[O-])CC2)CC1.[Yb+3] (stereo not shown) [Yb-9]
[6]; 10-fold dose (1000 μmol/kg) 15 minutes before Gd-9
  blocking of Gd-9 liver MRI enhancement: completely eliminated liver MRI enhancement with Gd-9

## O=C([O-])CN1CCN(CC(=O)[O-])CCN(CC(=O)NCCOCCOCCOCCNC(=O)CN2C(=O)CSC2=S)CC1.[64Cu+2] [^64Cu-4]
[1]
  Lung uptake, Bleo: 0.66 % ID/g
  Lung uptake, Naïve: 0.38 % ID/g
